Reference: publication PMC12177571, “Glycosidase-activated prodrugs of a cytotoxic iron chelator for targeted cancer therapy” (RSC Medicinal Chemistry, 2025)

Tests used:
β-galactosidase = target: T1, β-galactosidase (Escherichia coli, UniProt P00722); test: Enzymatic cleavage study (HPLC) with β-galactosidase; assay type: biochemical, e.coli; conditions: 100 μM prodrug in PBS, 2 units β-galactosidase, 37°C
T1 construct: purchased Roche; host or cells: E. coli overproducer
Procedure: To test the desired, selective enzymatic cleavage and further evaluate compound stability, solutions of each prodrug were prepared in phosphate-buffered saline (PBS), and either β-galactosidase or β-glucosidase were added. After incubation times of 24 h and 48 h, samples from each mixture were analyzed by HPLC to gain insight into the relative amounts of both the remaining prodrug and the liberated 1.
Fig. 3 HPLC traces after 48 h of enzyme incubation for the prodrugs of this study as indicated at their respective peaks. The identity of the employed enzyme is indicated on the left of the chromatogram and the identity of each observed compound is shown above the respective peak. Chromatograms are shown with an offset of 2 along the ordinate to facilitate comparison.
The three following enzymes were employed in this study:
(1) esterase from porcine liver sourced from Sigma Aldrich as dry powder with an activity of 229.4 units/mg protein as indicated by the supplier for the received lot; (2) β-glucosidase from almonds sourced from Sigma Aldrich as dry powder with an activity of 11.7 U/mg as indicated by the supplier for the received lot
(3) β-galactosidase from e.coli overproducer sourced from Roche as prepared aqueous solution with an activity of 1500 units/mL protein as indicated by the supplier for the […]
As indicated for each experiment below, the respective enzyme was dissolved in PBS buffer and diluted as appropriate to produce the desired concentration.
25 mM stock solutions in DMSO were prepared for 2a, 2b, 3a, and 3b. From these stock solutions, 4 µL was added to 1 mL of PBS buffer, respectively, in separate glass vials, achieving a final concentration of 100 µM. The vials were then assigned to one of three experimental groups: control, negative, and positive.
In the control group, no enzyme was introduced. The negative group received 2 units of esterase enzyme, while the positive group received 2 units of the target enzyme as indicated, either β-galactosidase or β-glucosidase. All vials were incubated in a 37°C water bath for 48 hours. Aliquots were extracted from each vial after 24 and 48 hours, respectively, and analyzed as described below.
The extracted aliquots were analyzed via high-performance liquid chromatography (HPLC) with ultraviolet (UV) detection at a wavelength of 254 nm. Chromatograms were plotted with an offset of 1 along the y-axis to allow clear intercomparison of the data across the […]

[1] = Fe(III) binding study by UV-vis spectroscopy; conditions: 30 μM compound, excess FeCl3 (50 μM), methanol
Procedure: With the prodrugs in hand, binding studies were carried out using UV-vis spectroscopy; this was done to confirm the Fe(III) binding ability of all new compounds. […] To evaluate whether 2a, 2b, 3a, and 3b were chelating Fe(III), each prodrug was similarly dissolved in a solution containing excess FeCl3.
Fig. 2 UV-vis absorption spectra for prodrugs 2a/b and 3a/b as well as 1 at a concentration of 30 μM with an excess of FeCl3 as Fe(III) source (50 μM) in methanol.
UV-vis spectra were recorded in methanol containing the indicated ligand or prodrug at a concentration of 30 µM and as appropriate Fe(III) at a concentration of 50 µM. A stock solution of FeCl3 in DMSO was used as source of Fe(III) and ligands were added from a […] stock solution in DMSO. All samples contained a final concentration of <0.2% DMSO.
Figure S7: UV-vis absorption spectra of 1, Fe(III), and 1 + Fe(III). The graph for 1 + Fe(III) (Numerically) was constructed by numerically adding the respective signals of Fe(III) and 1 to show what graph could be expected if the two species were in the same solution without interacting.
Figure S8: UV-vis absorption spectra of 2a, Fe(III), and 2a + Fe(III). The graph for 2a + Fe(III) (Numerically) was constructed by numerically adding the respective signals of Fe(III) and 2a to show what graph could be expected if the two species were in the same solution without interacting. […]

GM5756 fibroblast cells = test: MTT cell viability assay, GM5756 fibroblast cells (non-cancerous control); assay type: cell-based; conditions: 72 h incubation, mean and SD of three independent experiments, read-out: IC50 against GM5756
Procedure: (§1) Next, the cytotoxicity of the prodrugs was assessed in the human lung cancer (A549) and human ovarian cancer (OvCar-3) cell lines: overexpressing β-glucosidase, and, overexpressing both β-glucosidase and β-galactosidase, respectively.[40,41] For this, a standard MTT assay was employed to generate the proliferation profiles (cf. ESI ^† Fig. S1–S5) and allowed us to calculate the IC50 values for each compound. GM5756 fibroblast cells were included as non-cancerous control.
(§2) Cell culture. Ovcar-3 cells were maintained in RPMI-1640 medium (Invitrogen), A549 cells were maintained in high glucose (4.5 g/L) Dulbecco’s Modified Eagle’s medium (Invitrogen. Alle employed culture media were supplemented with 10% fetal bovine serum (Gibco), 2% penicillin/streptomycin (Sigma Aldrich), 1%GlutaMAX™-I (100x, Gibco), and 1% sodium pyruvate (100 mM, Gibco).
(§3) Cells were kept under a humidified atmosphere of 10% CO2 and 90% air at 37°C. Cells were split when they reached 90% confluency. All employed cell lines were sourced from the German Collection of Microorganisms and Cell Cultures (Leibnitz Institute, DSMZ).
(§4) Cell viability studies and MTT assays. Cells were harvested and plated on a 96-well plate in 100 µL growth medium at a density of 1500 cells per well. The cells were left to grow for 24 h at 37°C under a humidified atmosphere with 10% CO2. The next day, 100 µL of growth medium containing appropriate concentrations of the investigated compound were added to each well. As a control, the first row of wells was treated with 100 µL medium containing only the vehicle (1% DMSO); all wells contained a final concentration of 0.5% DMSO for the duration of the treatment. After incubation with the compound for 72 h, 50 µL of MTT solution (2.5 mg/mL 3-(4,5-dimethylthiazol-2-yl)-2,5-diphenyltetrazolium bromide dye in PBS buffer) was added to each well. After an additional incubation for 2 h, the supernatant was aspired off and 200 µL of DMSO was added to each well to solubilize the precipitated formazan dye. The produced formazan dye was quantified by measuring the optical density of the solution at 550 nm with a Tecan Infinite M Nano+ plate reader. A baseline correction was performed by subtracting a reference absorbance at 620 nm for each well. From the mean of the corrected absorbances for each set of equivalent wells, a dose-response curve was produced, which was then normalized to the wells containing untreated cells to allow for plate-to-plate comparison. The resulting dose-response curves were subjected to non-linear regression analysis performed in Microsoft Excel (version 16.64) to determine IC50 via the Hill-Langmuir model. Data is shown as the mean of three replicate experiments and error bars represent the standard deviation at each datum point.

OvCar-3 cells = test: MTT cell viability assay, OvCar-3 cells; assay type: cell-based; conditions: Homo sapiens, 72 h incubation, mean and SD of three independent experiments, read-out: IC50 against OvCar-3
Procedure: as §1, §2, §3, §4

A549 cells = test: MTT cell viability assay, A549 cells; assay type: cell-based; conditions: Homo sapiens, 72 h incubation, mean and SD of three independent experiments, read-out: IC50 against A549
Procedure: as §1, §2, §3, §4

T1 sequence (P00722 2-1024): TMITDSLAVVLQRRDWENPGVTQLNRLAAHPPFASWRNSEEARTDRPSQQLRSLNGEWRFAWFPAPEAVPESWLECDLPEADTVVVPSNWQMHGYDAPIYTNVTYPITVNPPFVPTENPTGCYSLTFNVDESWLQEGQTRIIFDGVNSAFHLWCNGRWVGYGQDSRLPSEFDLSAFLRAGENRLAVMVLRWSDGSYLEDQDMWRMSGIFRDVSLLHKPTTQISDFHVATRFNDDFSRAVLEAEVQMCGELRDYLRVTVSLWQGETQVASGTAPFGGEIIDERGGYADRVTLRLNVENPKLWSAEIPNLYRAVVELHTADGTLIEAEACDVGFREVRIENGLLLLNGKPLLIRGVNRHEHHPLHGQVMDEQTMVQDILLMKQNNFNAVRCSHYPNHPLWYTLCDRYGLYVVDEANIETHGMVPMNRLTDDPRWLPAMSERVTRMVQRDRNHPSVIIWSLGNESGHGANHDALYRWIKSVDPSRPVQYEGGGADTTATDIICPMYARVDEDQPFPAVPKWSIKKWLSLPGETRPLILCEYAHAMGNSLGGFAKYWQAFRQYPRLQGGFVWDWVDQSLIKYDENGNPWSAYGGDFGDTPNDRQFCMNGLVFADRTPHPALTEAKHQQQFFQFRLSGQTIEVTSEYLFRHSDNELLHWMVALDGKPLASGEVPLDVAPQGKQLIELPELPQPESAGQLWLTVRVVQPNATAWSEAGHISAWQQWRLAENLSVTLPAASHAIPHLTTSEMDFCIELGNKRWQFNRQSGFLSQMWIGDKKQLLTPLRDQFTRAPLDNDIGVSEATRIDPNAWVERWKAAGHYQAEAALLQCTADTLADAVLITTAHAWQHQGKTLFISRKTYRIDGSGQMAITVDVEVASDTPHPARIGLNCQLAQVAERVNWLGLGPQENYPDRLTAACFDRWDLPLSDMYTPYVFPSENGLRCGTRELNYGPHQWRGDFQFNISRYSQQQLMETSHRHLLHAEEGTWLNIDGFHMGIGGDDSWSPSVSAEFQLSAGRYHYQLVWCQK

Row | SMILES | Release of 1 (HPLC) (β-galactosidase; 24 h) | Release of 1 (HPLC) (β-galactosidase; 48 h) | Absorbance at 510 nm (Fe(III) chelation band) [1] | IC50 (GM5756 fibroblast cells) | IC50 (OvCar-3 cells) | IC50 (A549 cells)
1 | OC[C@H]1OC(Oc2ccccc2-c2nc(-c3ccccc3O)nn2-c2ccccc2)[C@H](O)[C@@H](O)[C@H]1O (some centres unmarked) [2a] | no release of 1 was observed | no release of 1 was observed | no relevant absorbance at 510 nm | > 100 µM | 67.6 ± 13 µM | 74.4 ± 14.1 µM
2 | OC[C@H]1OC(Oc2ccccc2-c2nc(-c3ccccc3O)nn2-c2ccccc2)[C@H](O)[C@@H](O)[C@@H]1O (some centres unmarked) [2b] | – | – | no relevant absorbance at 510 nm | > 100 µM | 76.5 ± 0.8 µM | > 100 µM
3 | OC[C@H]1OC(Oc2ccc(COc3ccccc3-c3nc(-c4ccccc4O)nn3-c3ccccc3)cc2)[C@H](O)[C@@H](O)[C@H]1O (some centres unmarked) [3a] | significant release of 1 | further increased | no relevant absorbance at 510 nm | > 100 µM | 9.1 ± 1.6 µM | 44.1 ± 2.4 µM
4 | OC[C@H]1OC(Oc2ccc(COc3ccccc3-c3nc(-c4ccccc4O)nn3-c3ccccc3)cc2)[C@H](O)[C@@H](O)[C@@H]1O (some centres unmarked) [3b] | – | – | no relevant absorbance at 510 nm | 15.3 ± 2.3 µM | 3.7 ± 0.3 µM | 7.4 ± 1.5 µM
